In patent US11773085B2 (Foghorn Therapeutics Inc., priority 2018, dated 2023):

Target: BRD9 bromodomain (Homo sapiens (Human), UniProt Q9H8M2)
Assay: BRD9 bromodomain TR-FRET competition binding assay
Details: 3 nM Flag-BRD9, 3.75 nM biotinylated ligand, 90 minutes at room temperature
Method: Cleaved His tag was removed by purification.
A mixture of biotinylated-ligand and SureLight™ Allophycocyanin-Streptavidin (APC-SA, PerkinElmer AD0201) in 50 mM HEPES (pH 7.4), 50 mM NaCl, 1 mM TCEP (pH 7), 0.01% (v/v) Tween-20, 0.01% (w/v) bovine serum albumin was added to a white 384-well PerkinElmer Proxiplate Plus plate. DMSO or 3-fold serially diluted compounds were then added to the Proxiplate followed by addition of Flag-BRD9. After a 10 minute incubation at room temperature, Eu-W1024 anti-FLAG (PerkinElmer, AD0273) was added.

Row | IC50 | Compound
1 | 10 to 100 nM | COc1cc(-c2cn(C)c(=O)c3cnccc23)cc(OC)c1CN1CC[C@H]1C(=O)O [Compound B45, (2S)-1-[[2,6-dimethoxy-4-(2-methyl-1-oxo-2,7-naphthyridin-4-yl)phenyl]methyl] azetidine-2-carboxylic acid]
2 | 10 to 100 nM | COc1cc(-c2cn(C)c(=O)c3cnccc23)cc(OC)c1CN(C)S(=O)(=O)C(C)C [Compound B49, N-[[2,6-dimethoxy-4-(2-methyl-1-oxo-2,7-naphthyridin-4-yl)phenyl]methyl]-N-methyl propane-2-sulfonamide]
3 | < 10 nM | COc1cc(-c2cn(C)c(=O)c3cnccc23)cc(SC)c1CN(C)C [Compound B54, 4-[4-[(dimethylamino)methyl]-3-methoxy-5-(methylsulfanyl)phenyl]-2-methyl-1,2-dihydro-2,7-naphthyridin-1-one]
4 | 10 to 100 nM | COc1cc(-c2cn(C3CC3)c(=O)c3cnccc23)cc(OC)c1CN(C)C [Compound B22, 2-cyclopropyl-4-[4-[(dimethylamino)methyl]-3,5-dimethoxyphenyl]-2,7-naphthyridin-1-one]
5 | 100 to 1000 nM | COc1cc(-c2cc(C)c(=O)n(C)c2)cc(OC)c1CN1CC(C(=O)O)C1 [Compound B48, 1-[[4-(1,5-dimethyl-6-oxopyridin-3-yl)-2,6-dimethoxyphenyl]methyl]azetidine-3-carboxylic acid]
6 | < 10 nM | COc1cc(-c2cn(C)c(=O)c3cnccc23)cc(OC)c1CN1CC(C(=O)NCCCCCCCCNc2ccccc2)C1 [Compound B44, 1-[[2,6-dimethoxy-4-(2-methyl-1-oxo-1,2-dihydro-2,7-naphthyridin-4-yl)phenyl]methyl]-N-[8-(phenylamino)octyl]azetidine-3-carboxamide]
7 | 10 to 100 nM | CNC(=O)c1ccc2c(-c3cc(OC)c(CN(C)C)c(OC)c3)cn(C)c(=O)c2c1 [Compound B59, 4-[4-[(dimethylamino)methyl]-3,5-dimethoxyphenyl]-N,2-dimethyl-1-oxoisoquinoline-7-carboxamide]
8 | < 10 nM | CNC(=O)C1CN(Cc2c(OC)cc(-c3cn(C)c(=O)c4cnccc34)cc2OC)C1 [Compound B34, 1-[[2,6-dimethoxy-4-(2-methyl-1-oxo-1,2-dihydro-2,7-naphthyridin-4-yl)phenyl]methyl]-N-methylazetidine-3-carboxamide formic acid]
9 | 10 to 100 nM | CNC(=O)[C@@H]1CCN1Cc1c(OC)cc(-c2cn(C)c(=O)c3cnccc23)cc1OC [Compound B56, (2S)-1-[[2,6-dimethoxy-4-(2-methyl-1-oxo-2,7-naphthyridin-4-yl)phenyl]methyl]-N-methylazetidine-2-carboxamide]
10 | < 10 nM | COc1cc(-c2cn(C)c(=O)c3cnccc23)cc(OC)c1CN(C)S(=O)(=O)CC(C)C [Compound B40, N-[[2,6-dimethoxy-4-(2-methyl-1-oxo-2,7-naphthyridin-4-yl)phenyl]methyl]-N,2-dimethylpropane-1-sulfonamide]
11 | 10 to 100 nM | CNC(=O)c1ccc2c(=O)n(C)cc(-c3cc(OC)c(CN(C)C)c(OC)c3)c2c1 [Compound B63, 4-(4-((dimethylamino)methyl)-3,5-dimethoxyphenyl)-N,2-dimethyl-1-oxo-12-dihydroisoquinoline-6-carboxamide]
12 | 10 to 100 nM | COc1cc(-c2cn(C)c(=O)c3cnccc23)cc(OC)c1CN1CC(CC(=O)O)C1 [Compound B41, 2-(1-[[2,6-dimethoxy-4-(2-methyl-1-oxo-1,2-dihydro-2,7-naphthyridin-4-yl)phenyl]methyl]azetidin-3-yl)acetic acid formic acid]
13 | 10 to 100 nM | COc1cc(-c2cn(C)c(=O)c3cnccc23)cc(F)c1CN(C)C [Compound B67, 4-(4-((dimethylamino)methyl)-3-fluoro-5-methoxyphenyl)-2-methyl-2,7-naphthyridin-1(2H)-one]
14 | < 10 nM | COc1cc(-c2cn(C)c(=O)c3cnccc23)cc(OC)c1CN(C)S(=O)(=O)C1CC1 [Compound B39, N-[[2,6-dimethoxy-4-(2-methy-1-oxo-2,7-naphthyridin-4-yl)phenyl]methyl]-N-methyl cyclopropanesulfonamide]
15 | 10 to 100 nM | CNCc1c(OC)cc(-c2cn(C)c(=O)c3cnccc23)cc1OC [Compound B53, 4-[3,5-dimethoxy-4-[(methylamino)methyl]phenyl]-2-methyl-1,2-dihydro-2,7-naphthyridin-1-one]
16 | 10 to 100 nM | CNCc1c(OC)cc(-c2cn(C3CC3)c(=O)c3cnccc23)cc1OC [Compound B18, 2-cyclopropyl-4-[3,5-dimethoxy-4-[(methylamino)methyl]phenyl]-2,7-naphthyridin-1-one]

Further lines, the compound ahead of its results:

Row | Compound | IC50
17 | CC(=O)c1cc(-c2cccc3nccn23)c2cc(N3CCNCC3)ccn12 [Compound B19, 1-(1-[imidazo[1,2-a]pyridin-5-yl]-7-(piperazin-1-yl)indolizin-3-yl)ethan-1-one] | 100 to 1000 nM
18 | O=C(NCc1ccccc1)c1cn(CC2CC2)c(=O)c2[nH]ncc12 [Compound B13] | > 1000 nM
19 | COc1cc(-c2cn(C)c(=O)c3[nH]cnc23)cc(OC)c1CN(C)C [Compound B47, 7-[4-[(dimethylamino)methyl]-3,5-dimethoxyphenyl]-5-methyl-3H-imidazo[4,5-c]pyridin-4-one formic acid] | 10 to 100 nM
20 | COc1cc(-c2cn(C)c(=O)c3nccnc23)cc(OC)c1CN(C)C [Compound B33, 8-[4-[(dimethylamino)methyl]-3,5-dimethoxyphenyl]-6-methylpyrido[3,4-b]pyrazin-5-one] | 100 to 1000 nM
21 | CCN(C)C(=O)c1cn(C)c(=O)c2[nH]ncc12 [Compound B11] | > 1000 nM
22 | CN(Cc1ccccc1)C(=O)c1cn(C)c(=O)c2[nH]ncc12 [Compound B7] | > 1000 nM
23 | COc1cc(-c2cn(C)c(=O)c3cnncc23)cc(OC)c1CN(C)C [Compound B52, 8-[4-[(dimethylamino)methyl]-3,5-dimethoxyphenyl]-6-methyl-5H,6H-pyrido[3,4-d]pyridazin-5-one] | 10 to 100 nM
24 | COc1cc(-c2cc(NC(=O)N(C)C)c3nncn3c2)cc(OC)c1CN(C)C [Compound B58, 1-(6-[4-[(dimethylamino)methyl]-3,5-dimethoxyphenyl]-[1,2,4]triazolo[4,3-a]pyridin-8-yl)-3,3-dimethylurea] | > 1000 nM
25 | CCCn1cc(C(=O)NCc2ccccc2)c2cn[nH]c2c1=O [Compound B10] | > 1000 nM
26 | Cn1cc(C(=O)NCc2ccccc2)c2cn[nH]c2c1=O [Compound B5] | > 1000 nM
27 | COc1cc(-c2cn(C)c(=O)c3ccc(-c4nc5cnccc5[nH]4)cc23)cc(OC)c1CN(C)C [Compound B65, 4-(4-((dimethylamino)methyl)-3,5-dimethoxyphenyl)-6-(1H-imidazo[4,5-c]pyridin-2-yl)-2-methylisoquinolin-1(2H)-one] | 10 to 100 nM
28 | COc1cc(-c2cc(NC(C)=O)c(=O)n(C)c2)cc(OC)c1CN(C)C [Compound B29, N-(5-[4-[(dimethylamino)methyl]-3,5-dimethoxyphenyl]-1-methyl-2-oxo-1,2-dihydropyridin-3-yl)acetamide] | 100 to 1000 nM
29 | COc1cc(C#N)ccc1S(=O)(=O)Nc1ccc2c(c1)cc(C)c(=O)n2C [Compound B26] | > 1000 nM
30 | Cn1cc(C(=O)NCc2cccc3ccccc23)c2cn[nH]c2c1=O [Compound B4] | > 1000 nM
31 | CCC(=O)Nc1c(C)c(-c2cc(OC)c(CN(C)C)c(OC)c2)cn(C)c1=O [Compound B31, N-(5-[4-[(dimethylamino)methyl]-3,5-dimethoxyphenyl]-1,4-dimethyl-2-oxo-1,2-dihydropyridin-3-yl)propanamide] | > 1000 nM
32 | COc1cc(-c2cc(N)c(=O)n(C)c2)cc(OC)c1CN(C)C [Compound B28, 3-amino-5-(4-((dimethylamino)methyl)-3,5-dimethoxyphenyl)-1-methylpyridin-2(1H)-one] | 10 to 100 nM
33 | Cn1cc(C(=O)Nc2ccccc2)c2cn[nH]c2c1=O [Compound B8] | > 1000 nM
34 | CN(C)Cc1ccc(-c2cn(C)c(=O)c3cnccc23)cc1S(C)(=O)=O [Compound B37, 4-[4-[(dimethylamino)methyl]-3-methanesulfonylphenyl]-2-methyl-2,7-naphthyridin-1-one] | 100 to 1000 nM
35 | CCn1cc(C(=O)NCc2ccccc2)c2cn[nH]c2c1=O [Compound B9] | > 1000 nM
36 | CCOC(=O)Nc1cc(-c2cc(OC)c(CN(C)C)c(OC)c2)cn(C)c1=O [Compound B32] | 10 to 100 nM
37 | COc1c(CN(C)C)ccc(-c2cn(C)c(=O)c3cnccc23)c1F [Compound B66, 4-(4-((dimethylamino)methyl)-2-fluoro-3-methoxyphenyl)-2-methyl-2,7-naphthyridin-1(2H)-one] | 100 to 1000 nM
38 | COc1cc(-c2cn(C)c(=O)c3[nH]ncc23)cc(OC)c1CN(C)C [Compound B43, 4-(4-((dimethyllamino)methyl)-3,5-dimethoxyphenyl)-6-methyl-1,6-dihydro-7H-pyrazolo[3,4-c]pyridin-7-one] | < 10 nM
39 | COc1cc(-c2cn(C)c(=O)c3cc(-c4nc5ccncc5[nH]4)ccc23)cc(OC)c1CN(C)C [Compound B64, 4-[4-[(dimethylamino)methyl]-3,5-dimethoxyphenyl]-7-[1H-imidazo[4,5-c]pyridin-2-yl]-2-methylisoquinolin-1-one] | 10 to 100 nM
40 | CNCc1ccc(-c2cn(C)c(=O)c3[nH]ccc23)cc1 [Compound B14] | 10 to 100 nM
41 | CC(C)n1cc(C(=O)NCc2ccccc2)c2cn[nH]c2c1=O [Compound B12] | > 1000 nM
42 | CCNC(=O)c1cn(C)c(=O)c2[nH]ncc12 [Compound B6] | > 1000 nM
43 | CSc1cc(-c2cn(C)c(=O)c3cnccc23)ccc1CN(C)C [Compound B36, 4-[4-[(dimethylamino)methyl]-3-(methylsulfanyl)phenyl]-2-methyl-1,2-dihydro-2,7-naphthyridin-1-one] | 10 to 100 nM
